Source: ChEMBL document CHEMBL2176889, “Design, synthesis, and pharmacological evaluation of monocyclic pyrimidinones as novel inhibitors of PDE5” (J Med Chem, 2012)
Active and inactive are the calls of the source. The calls are words filed in the database; no cut-off is given here.

Legend:
[1] = system: Rattus norvegicus; test: Increase in intracavernous pressure/blood pressure in Sprague-Dawley rat model of erection at 10 mg/kg, po measured 30 mins post dose; assay type: functional, organism-based; design: dose 10 mg/kg
[2] = Oral bioavailability in Sprague-Dawley rat at 10 mg/kg by LC-MS/MS method; assay type: ADME, organism-based; details: in vivo
[3] = Tmax in Sprague-Dawley rat at 10 mg/kg, po by LC-MS/MS method; assay type: ADME, organism-based; design: dose 10 mg/kg, route oral; details: in vivo
[4] = Half life in Sprague-Dawley rat at 10 mg/kg, po by LC-MS/MS method; assay type: ADME, organism-based; design: dose 10 mg/kg, route oral; details: in vivo
[5] = Cmax in Sprague-Dawley rat at 10 mg/kg, po by LC-MS/MS method; assay type: ADME, organism-based; design: dose 10 mg/kg, route oral; details: in vivo
[6] = AUC (0 to 10 hrs) in Sprague-Dawley rat at 10 mg/kg, po by LC-MS/MS method; assay type: ADME, organism-based; design: time < 10 hr, dose 10 mg/kg, route oral; details: plasma
[7] = MRT (0 to 10 hrs) in Sprague-Dawley rat at 10 mg/kg, po by LC-MS/MS method; assay type: ADME, organism-based; design: dose 10 mg/kg, route oral; details: in vivo
[8] = Half life in Sprague-Dawley rat at 5 mg/kg, iv by LC-MS/MS method; assay type: ADME, organism-based; design: dose 5 mg/kg, route intravenous; details: in vivo
[9] = AUC (0 to 10 hrs) in Sprague-Dawley rat at 5 mg/kg, iv by LC-MS/MS method; assay type: ADME, organism-based; design: time < 10 hr, dose 5 mg/kg, route intravenous; details: plasma
[10] = MRT (0 to 10 hrs) in Sprague-Dawley rat at 5 mg/kg, iv by LC-MS/MS method; assay type: ADME, organism-based; design: dose 5 mg/kg, route intravenous; details: in vivo
[11] = Volume of distribution in Sprague-Dawley rat at 5 mg/kg, iv by LC-MS/MS method; assay type: ADME, organism-based; design: dose 5 mg/kg, route intravenous; details: in vivo
[12] = Clearance in Sprague-Dawley rat at 5 mg/kg, iv by LC-MS/MS method; assay type: ADME, organism-based; design: dose 5 mg/kg, route intravenous; details: in vivo
[13] = Inhibition of dog adrenal gland PDE2 by [3H]cGMP based tritium scintillation proximity assay; assay type: tissue-based, Canis lupus familiaris
[14] = target: High affinity 3',5'-cyclic-AMP phosphodiesterase 7A (Homo sapiens, UniProt Q13946)
Sequence of High affinity 3',5'-cyclic-AMP phosphodiesterase 7A (Q13946 whole entry): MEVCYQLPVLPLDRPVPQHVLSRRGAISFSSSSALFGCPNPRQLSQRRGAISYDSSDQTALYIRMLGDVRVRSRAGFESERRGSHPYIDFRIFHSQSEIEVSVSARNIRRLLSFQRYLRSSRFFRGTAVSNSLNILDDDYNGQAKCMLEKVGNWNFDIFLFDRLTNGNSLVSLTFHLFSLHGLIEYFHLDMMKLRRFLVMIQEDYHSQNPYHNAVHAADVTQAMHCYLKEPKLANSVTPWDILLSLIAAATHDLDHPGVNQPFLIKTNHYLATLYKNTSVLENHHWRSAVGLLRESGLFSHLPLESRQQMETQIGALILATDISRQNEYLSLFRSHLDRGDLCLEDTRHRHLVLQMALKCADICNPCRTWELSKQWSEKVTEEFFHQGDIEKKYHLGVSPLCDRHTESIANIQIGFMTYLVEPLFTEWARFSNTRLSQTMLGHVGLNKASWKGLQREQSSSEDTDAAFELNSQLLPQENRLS

Row | bioavailability [2] | Tmax [3] | half-life [4] | Cmax [5] | AUC(0-t) at 10 h [6] | MRT last [7] | half-life [8] | AUC(0-t) at 10 h [9] | MRT last [10] | Vd [11] | clearance [12] | IC50 [13] | IC50 [14] | SMILES | Activity [1]
1 | 10% | 0.25 h | 3.94 h | 468 ng/mL | 895 ng·h/mL | 3.09 h | 1.29 h | 4470 ng·h/mL | 0.81 h | 2.07 L/kg | 19.5 mL/min/kg |  |  | CCCOc1ccc(S(=O)(=O)N2CCN(C)CC2)cc1-c1nc(CC)c(CC)c(=O)[nH]1 | Active
2 | 23% |  |  |  |  |  |  |  |  |  |  | > 10 µM | 4.69 µM | CCCc1nn(C)c2c(=O)[nH]c(-c3cc(S(=O)(=O)N4CCN(C)CC4)ccc3OCC)nc12 | Active
